Assay results published in PubChem BioAssay AID248 (DTP/NCI, 2004).
“And” between values parts separate entries of the source, which are not always exact repeats. Equal values may be shown once. Toxic doses and inconclusive results are not listed. Cut-off read from the data, not from the text of the source: active = T/C of 150% or more; inactive = T/C below 125%.

System: L1210 leukemia ip in BDF1 mice, survival T/C
Assay: NCI In Vivo Anticancer Drug Screen. Data for tumor model L1210 Leukemia (intraperitoneal) in B6D2F1 (BDF1) mice
Conditions: endpoint: mean survival time, higher = longer survival
Method in brief: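 Read-out is survival time, reported as the treated-group measurement over the vehicle-control measurement.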

[1] = dose: 1.56 mg/kg/injection, schedule: Q01DX009 (ip), vehicle: Klucel (hydroxypropylcellulose) (HPC)
[2] = dose: 6.25 mg/kg/injection, schedule: Q01DX009 (ip), vehicle: Klucel (hydroxypropylcellulose) (HPC)
[3] = dose: 100.0 mg/kg/injection, schedule: Q01DX001 (ip), vehicle: carboxymethylcellulose (CMC)
[4] = dose: 200.0 mg/kg/injection, schedule: Q01DX001 (ip), vehicle: carboxymethylcellulose (CMC)
[5] = dose: 400.0 mg/kg/injection, schedule: Q01DX001 (ip), vehicle: carboxymethylcellulose (CMC)
[6] = dose: 100.0 mg/kg/injection, schedule: Q04DX003 (ip), vehicle: saline with Tween-80
[7] = dose: 100.0 mg/kg/injection, schedule: Q04DX003 (ip), vehicle: saline
[8] = dose: 100.0 mg/kg/injection, schedule: Q01DX001 (ip), vehicle: saline
[9] = dose: 200.0 mg/kg/injection, schedule: Q01DX001 (ip), vehicle: saline
[10] = dose: 400.0 mg/kg/injection, schedule: Q01DX001 (ip), vehicle: saline

Measured: T/C

O=C(Nc1cc([N+](=O)[O-])ccc1O)Nc1cccc(Cl)c1Cl
inactive: dose: 100.0 mg/kg/injection, schedule: Q01DX009 (ip), vehicle: Klucel (hydroxypropylcellulose) (HPC) 88 % of control | dose: 200.0 mg/kg/injection, schedule: Q01DX009 (ip), vehicle: Klucel (hydroxypropylcellulose) (HPC) 100 % of control | dose: 400.0 mg/kg/injection, schedule: Q01DX009 (ip), vehicle: Klucel (hydroxypropylcellulose) (HPC) 92 % of control

NC(N)=N/N=C/c1ccc(F)cc1
inactive: dose: 15.0 mg/kg/injection, schedule: Q01DX Z (ip), vehicle: carboxymethylcellulose (CMC) 95 % of control | dose: 30.0 mg/kg/injection, schedule: Q01DX Z (ip), vehicle: carboxymethylcellulose (CMC) 101 % of control | dose: 60.0 mg/kg/injection, schedule: Q01DX Z (ip), vehicle: carboxymethylcellulose (CMC) 100 % of control and 109 % of control | dose: 120.0 mg/kg/injection, schedule: Q01DX Z (ip), vehicle: carboxymethylcellulose (CMC) 97 % of control

C(=P(c1ccccc1)(c1ccccc1)c1ccccc1)[P+](c1ccccc1)(c1ccccc1)c1ccccc1.[Br][Cu][Br]
inactive: [1] 101 % of control | dose: 3.13 mg/kg/injection, schedule: Q01DX009 (ip), vehicle: Klucel (hydroxypropylcellulose) (HPC) 109 % of control | [2] 114 % of control

CCOC1C(Br)=Cc2ccccc2N1C(=O)OC (stereo not drawn)
inactive: dose: 100.0 mg/kg/injection, schedule: Q01DX001 (ip), vehicle: Klucel (hydroxypropylcellulose) (HPC) 101 % of control | dose: 200.0 mg/kg/injection, schedule: Q01DX001 (ip), vehicle: Klucel (hydroxypropylcellulose) (HPC) 97 % of control | dose: 400.0 mg/kg/injection, schedule: Q01DX001 (ip), vehicle: Klucel (hydroxypropylcellulose) (HPC) 101 % of control

COc1ccc2c(c1)CN(S(=O)(=O)c1ccc(C)cc1)CCC2=O
inactive: dose: 100.0 mg/kg/injection, schedule: Q01DX009 (ip), vehicle: saline 102 % of control | dose: 200.0 mg/kg/injection, schedule: Q01DX009 (ip), vehicle: saline 98 % of control | dose: 400.0 mg/kg/injection, schedule: Q01DX009 (ip), vehicle: saline 95 % of control

O=C(OCC(O)C(O)C(O)C(COC(=O)c1ccccc1)OC(=O)c1ccccc1)c1ccccc1 (stereo not drawn)
inactive: dose: 87.5 mg/kg/injection, schedule: Q01DX009 (ip), vehicle: carboxymethylcellulose (CMC) 87 % of control | [3] 98 % of control | dose: 175.0 mg/kg/injection, schedule: Q01DX009 (ip), vehicle: carboxymethylcellulose (CMC) 90 % of control | [4] 96 % of control | dose: 350.0 mg/kg/injection, schedule: Q01DX009 (ip), vehicle: carboxymethylcellulose (CMC) 87 % of control | [5] 93 % of control

Nc1nc(-c2ccccc2)c2ccccc2n1
inactive: [3] 101 % of control | [4] 93 % of control | [5] 104 % of control

C=C(C)CN=C=S
inactive: dose: 25.0 mg/kg/injection, schedule: Q01DX009 (ip), vehicle: saline with Tween-80 100 % of control | dose: 25.0 mg/kg/injection, schedule: Q04DX003 (ip), vehicle: saline with Tween-80 101 % of control | dose: 50.0 mg/kg/injection, schedule: Q01DX009 (ip), vehicle: saline with Tween-80 98 % of control | dose: 50.0 mg/kg/injection, schedule: Q04DX003 (ip), vehicle: saline with Tween-80 109 % of control | dose: 100.0 mg/kg/injection, schedule: Q01DX009 (ip), vehicle: saline with Tween-80 104 % of control | [6] 103 % of control

Cc1c2cnccc2c(C)c2c1c1ccccc1n2CC1CO1 (stereo not drawn)
inactive: dose: 0.78 mg/kg/injection, schedule: Q01DX009 (ip), vehicle: Klucel (hydroxypropylcellulose) (HPC) 90 % of control | [1] 97 % of control | dose: 1.56 mg/kg/injection, schedule: Q01DX009 (ip), vehicle: saline with Tween-80 113 % of control | dose: 3.12 mg/kg/injection, schedule: Q01DX009 (ip), vehicle: Klucel (hydroxypropylcellulose) (HPC) 100 % of control | dose: 3.13 mg/kg/injection, schedule: Q01DX009 (ip), vehicle: saline with Tween-80 110 % of control | dose: 4.12 mg/kg/injection, schedule: Q01DX009 (ip), vehicle: Klucel (hydroxypropylcellulose) (HPC) 120 % of control | [2] 94 % of control and 122 % of control | dose: 6.25 mg/kg/injection, schedule: Q01DX009 (ip), vehicle: saline with Tween-80 113 % of control | dose: 6.25 mg/kg/injection, schedule: Q04DX003 (ip), vehicle: saline 110 % of control | dose: 12.5 mg/kg/injection, schedule: Q01DX009 (ip), vehicle: Klucel (hydroxypropylcellulose) (HPC) 113 % of control | dose: 12.5 mg/kg/injection, schedule: Q01DX009 (ip), vehicle: saline with Tween-80 120 % of control | dose: 25.0 mg/kg/injection, schedule: Q01DX009 (ip), vehicle: Klucel (hydroxypropylcellulose) (HPC) 119 % of control and 86 % of control | dose: 25.0 mg/kg/injection, schedule: Q04DX003 (ip), vehicle: saline 123 % of control | dose: 65.0 mg/kg/injection, schedule: Q04DX003 (ip), vehicle: saline 108 % of control and 117 % of control | [7] 104 % of control and 114 % of control | dose: 150.0 mg/kg/injection, schedule: Q04DX003 (ip), vehicle: saline 108 % of control

O=C(O)CCCC1CCC(=O)CC1
inactive: [7] 109 % of control | dose: 200.0 mg/kg/injection, schedule: Q04DX003 (ip), vehicle: saline 96 % of control | dose: 400.0 mg/kg/injection, schedule: Q04DX003 (ip), vehicle: saline 100 % of control

O=c1[nH]c2c(Cl)cc(Cl)cc2c2ccccc12
inactive: [3] 87 % of control | [4] 92 % of control | [5] 100 % of control

O=P(CCCCCCCCCCP(=O)(c1ccccc1)c1ccccc1)(c1ccccc1)c1ccccc1
inactive: [8] 91 % of control | [9] 92 % of control | [10] 92 % of control

O=CN(O)CC(=O)O
inactive: dose: 62.5 mg/kg/injection, schedule: Q01DX010 (ip), vehicle: saline 95 % of control and 98 % of control | dose: 62.5 mg/kg/injection, schedule: Q01DX Z (ip), vehicle: saline 93 % of control | dose: 125.0 mg/kg/injection, schedule: Q01DX010 (ip), vehicle: saline 95 % of control | dose: 125.0 mg/kg/injection, schedule: Q01DX Z (ip), vehicle: saline 98 % of control | dose: 250.0 mg/kg/injection, schedule: Q01DX010 (ip), vehicle: saline 98 % of control and 106 % of control | dose: 250.0 mg/kg/injection, schedule: Q01DX Z (ip), vehicle: saline 92 % of control | dose: 500.0 mg/kg/injection, schedule: Q01DX010 (ip), vehicle: saline 96 % of control and 101 % of control | dose: 500.0 mg/kg/injection, schedule: Q01DX Z (ip), vehicle: saline 88 % of control | dose: 575.0 mg/kg/injection, schedule: Q02DX010 (ip), vehicle: other 101 % of control | dose: 860.0 mg/kg/injection, schedule: Q02DX010 (ip), vehicle: other 107 % of control | dose: 1300.0 mg/kg/injection, schedule: Q02DX010 (ip), vehicle: other 105 % of control | dose: 2000.0 mg/kg/injection, schedule: Q02DX010 (ip), vehicle: other 106 % of control | dose: 3000.0 mg/kg/injection, schedule: Q02DX010 (ip), vehicle: other 117 % of control

COC(=O)c1ccccc1NC(=O)Nc1cccc(OC)c1
inactive: dose: 100.0 mg/kg/injection, schedule: Q04DX002 (ip), vehicle: Klucel (hydroxypropylcellulose) (HPC) 108 % of control | dose: 200.0 mg/kg/injection, schedule: Q04DX002 (ip), vehicle: Klucel (hydroxypropylcellulose) (HPC) 97 % of control | dose: 400.0 mg/kg/injection, schedule: Q04DX002 (ip), vehicle: Klucel (hydroxypropylcellulose) (HPC) 105 % of control

O=C(O)C12CC3CC1C2C3
inactive: [6] 103 % of control | dose: 200.0 mg/kg/injection, schedule: Q04DX003 (ip), vehicle: saline with Tween-80 91 % of control | dose: 400.0 mg/kg/injection, schedule: Q04DX003 (ip), vehicle: saline with Tween-80 86 % of control

O=C(O)/C=N/OCc1cc2c(cc1Cl)OCO2
inactive: dose: 100.0 mg/kg/injection, schedule: Q04DX003 (ip), vehicle: saline sonified 95 % of control | dose: 200.0 mg/kg/injection, schedule: Q04DX003 (ip), vehicle: saline sonified 92 % of control | dose: 400.0 mg/kg/injection, schedule: Q04DX003 (ip), vehicle: saline sonified 94 % of control

CC[As](=O)(O)CCCc1ccccc1
inactive: dose: 12.5 mg/kg/injection, schedule: Q01DX001 (ip), vehicle: Klucel (hydroxypropylcellulose) (HPC) 106 % of control | dose: 25.0 mg/kg/injection, schedule: Q01DX001 (ip), vehicle: Klucel (hydroxypropylcellulose) (HPC) 109 % of control

Cc1ccc(N(C)C(=O)c2ccccc2S)cc1
inactive: [8] 105 % of control | [9] 105 % of control | [10] 109 % of control
